In EP4792822A1, “USE OF PEPTIDE AMIDE COMPOUND IN PREPARATION OF DRUG FOR […] AND VOMITING” (Haisco Pharmaceutical Group Co., Ltd., priority 2023, dated 2025):

Tested on: subjects undergoing elective abdominal surgery under general anaesthesia
Assay: Example 2: placebo/active-controlled clinical study of compound 1 injection for postoperative analgesia (flurbiprofen axetil rescue; nausea and vomiting recorded)
Assay type: in vivo, patients
Description: This study was a multicentre, randomised, double-blind, placebo/active-controlled study. About 387 subjects undergoing elective abdominal surgery under general anaesthesia were planned to be enrolled and randomised to three groups: the compound 1 group (129 subjects), the tramadol group (129 subjects), and the placebo group (129 subjects).
After the end of surgery, MOAA/S scores were assessed every 5 ± 1 min. Once the subjects regained consciousness (defined as the first MOAA/S score of 5), the first resting pain intensity assessment was initiated within 5 min [using the numeric rating scale (NRS), where 0-10 represent varying degrees of pain: 0 represents no pain, higher numbers represent more severe pain, and 10 represents the most severe pain]. It was recommended that the interval between two NRS assessments not exceed 30 min. Within 4 h after the end of surgery, subjects who met all inclusion criteria and none of the exclusion criteria were randomised at a 1 : 1 : 1 ratio into the compound 1 group, the tramadol group or the placebo group. It was recommended that randomisation be performed within 10 min after the first NRS score ≥ 4.
After successful randomisation, to prevent the subjects from enduring pain for a long time, the first dose of compound 1 injection (1 µg/kg/dose), tramadol hydrochloride injection (50 mg/dose), or placebo injection was administered to the subjects by the investigator as soon as possible (recommended within 15 min after successful randomisation). The end time of the first postoperative administration of the study drug was recorded as 0 min. At 8 h (± 15 min) and 16 h (± 15 min) after the end of the first administration, a single corresponding dose of the compound 1 injection, tramadol hydrochloride injection, or placebo injection was administered to the subjects, for a total of three administrations.
Resting NRS score assessments were performed in subjects at 15 min ± 5 min, 30 min ± 5 min, 1 h ± 5 min, 2 h ± 15 min, 4 h ± 15 min, 8 h ± 30 min (within 30 min before the second administration of the study drug), 12 h ± 30 min, 16 h ± 30 min (within 30 min before the third administration of the study drug), 20 h ± 30 min, and 24 h ± 1 h after the end of the first administration of the study drug. The NRS score for resting pain refers to the NRS score assessed when the subject is at rest (e.g., sitting or lying still). If the subject was unconscious at a scheduled NRS assessment time point, the score was recorded as follows: if the previous NRS score was ≥ 2, the current NRS score was recorded as 2; if the previous NRS score was < 2, the current NRS score was recorded as the previous score. Meanwhile, it was documented that the subject was unconscious at the time of assessment.
A flurbiprofen axetil injection was administered via intravenous injection for rescue treatment if the subject complained of pain at any time point after the first administration of the study drug, and the resting pain NRS score was ≥ 4. It was recommended that the time from the subject's NRS assessment to actual administration of flurbiprofen axetil injection be ≤ 30 min; an initial intravenous dose of 50 mg be administered, followed by additional doses as needed. It was also recommended that the interval between two rescue treatments be ≥ 3 h and that the interval between rescue medication and study drug administration be ≥ 1 h. However, rescue treatment could be given at any time for severe pain. […] Rescue details (including resting NRS score before rescue, the time of each use of rescue medication, the dosage of rescue medication, etc.) were recorded truthfully.
Prophylactic antiemetic treatment was prohibited during the study. After the first postoperative administration, the investigator administered antiemetic agents based on the occurrence of nausea and vomiting in the subject, and the dosage of the antiemetic agents was recorded. […]

[1] = Example 2, safety analysis set, N = 129, 1 µg/kg/dose, three administrations
[2] = Example 2, listed as compound 1
[3] = compared with tramadol and placebo
[4] = within 0-12 h and 0-24 h after the first postoperative administration, compared with tramadol and placebo
[5] = within 0-24 h, compared with tramadol and placebo

CC(=O)N1CC2(CCN(C(=O)[C@@H](CCCCN)NC(=O)[C@@H](CC(C)C)NC(=O)[C@@H](Cc3ccccc3)NC(=O)[C@H](N)Cc3ccccc3)CC2)C1 [Compound 1, (2R)-N-[(1R)-1-(2-acetyl-2,7-diazaspiro[3.5]nonane-7-carbonyl)-5-amino-pentyl]-2-[[(2R)-2-[[(2R)-2-amino-3-phenyl-propionyl]amino]-3-phenylpropionyl]amino]-4-methyl-pentanamide]
Change in incidence of nausea relative to placebo (Example 2): 50% reduction | Change in incidence of vomiting relative to placebo (Example 2): 47.9% reduction | overall safety and tolerability (Example 2): good overall safety and tolerability | serious adverse events (Example 2): No serious adverse events occurred | Nausea (incidence) [1]: 10.1% | Vomiting (incidence) [1]: 8.5% | Change in incidence of nausea relative to placebo [2]: 50 % reduction | Change in incidence of vomiting relative to placebo [2]: 47.9 % reduction | SPID0-24 h after the first postoperative administration (compared with placebo): superior to that in the placebo group | PID at each time point [3]: comparable to those in the tramadol group and significantly lower than those in the placebo group | SPID0-12 h after the first postoperative administration [3]: comparable to those in the tramadol group and significantly lower than those in the placebo group | duration of analgesia [3]: comparable to those in the tramadol group and significantly longer than those in the placebo group | incidence of decreased thyroid-stimulating hormone [3]: slightly higher than that in the tramadol group and the placebo group | incidences of nausea and vomiting [3]: lower than those in the tramadol group and the placebo group | subject and investigator satisfaction scores for postoperative analgesia [3]: generally comparable to those in the tramadol group and significantly higher than those in the placebo group | time to the first use of rescue analgesic agents [3]: comparable to those in the tramadol group and significantly longer than those in the placebo group | SPID0-24 h after the first postoperative administration (compared with tramadol injection (50 mg/dose)): non-inferior to that in the tramadol injection group | effect on PONV in patients after abdominal surgery (summary of both Phase III studies (Example 2)): preventive and/or alleviating effect on PONV | mean cumulative dosage of rescue analgesic agents [4]: comparable to those in the tramadol group and significantly lower than those in the placebo group | proportion of subjects with NRS scores ≤ 3 [4]: generally comparable to those in the tramadol group and significantly higher than those in the placebo group | cumulative dosage of other antiemetic agents [5]: higher than those in the tramadol group and the placebo group | proportion of subjects using other antiemetic agents [5]: slightly lower than those in the tramadol group and the placebo group | proportion of subjects using tropisetron and the cumulative dosage (within 0-24 h after the first administration, compared with tramadol and placebo): significantly lower than those in the tramadol group and the placebo group | proportion of subjects using rescue analgesic agents (within 0-24 h after the first postoperative administration, compared with tramadol and placebo): comparable to those in the tramadol group and significantly lower than those in the placebo group
